# Measurements: DBAASP
# What was measured:
# Assay in all cases: ≥ marks a high value that may be exact or a test limit, other limits are often not marked, values filed in µg/mL are converted to µM
# [1] = test system: Acinetobacter baumannii ATCC 19606
# [2] = test system: Candida albicans ATCC 90028
# [3] = test system: Candida parapsilosis ATCC 22019
# [4] = test system: Enterococcus faecalis ATCC 29212
# [5] = test system: Escherichia coli ATCC 25922
# Escherichia coli ML-35p = test system: Escherichia coli ML-35p
# [6] = test system: Klebsiella pneumoniae ATCC 13883
# Listeria ivanovii = test system: Listeria ivanovii
# [7] = test system: Pseudomonas aeruginosa ATCC 27853
# Saccharomyces cerevisiae = test system: Saccharomyces cerevisiae
# [8] = test system: Salmonella enterica subsp. enterica serovar Enteritidis
# [9] = test system: Staphylococcus aureus ATCC 25923
# [10] = test system: Staphylococcus aureus ST1065
# [11] = test system: Streptococcus pyogenes ATCC 19615
# [12] = test system: Acinetobacter baumannii Ab1408
# [13] = test system: Acinetobacter baumannii Ab5753
# [14] = test system: Acinetobacter baumannii Ab5755
# [15] = test system: Acinetobacter baumannii NM124
# [16] = test system: Acinetobacter baumannii NM35
# [17] = test system: Acinetobacter baumannii NM8
# [18] = test system: Escherichia coli ATCC 25726
# Escherichia coli Ec513 = test system: Escherichia coli Ec513
# [19] = test system: Klebsiella pneumoniae ATCC 700603
# [20] = test system: Pseudomonas aeruginosa Pa1409
# [21] = test system: Pseudomonas aeruginosa Pa4216
# [22] = test system: Staphylococcus aureus Sa1390
# Escherichia coli W160-37 = test system: Escherichia coli W160-37
# Staphylococcus aureus = test system: Staphylococcus aureus
# [23] = test system: Arthrobacter globiformis VKM Ac-1112
# [24] = test system: Bacillus subtilis VKM B-501
# [25] = test system: Escherichia coli DH5alpha
# Escherichia coli MH1 = test system: Escherichia coli MH1
# [26] = test system: Pseudomonas aeruginosa PAO1
# [27] = test system: Saccharomyces cerevisiae Y190
# Escherichia coli O111 = test system: Escherichia coli O111
compound,measurement,setting,value
CC[C@H](C)[C@H](NC(=O)CNC(=O)[C@H](CCCCN)NC(=O)[C@H](C)NC(=O)[C@@H](N)Cc1ccccc1)C(=O)N[C@@H](C)C(=O)NCC(=O)N[C@@H](CCSC)C(=O)N[C@@H](C)C(=O)NCC(=O)N[C@@H](CCCCN)C(=O)N[C@@H](CC(C)C)C(=O)N[C@@H](Cc1ccccc1)C(N)=O [FAKGIAGMAGKLF],MIC,[1],> 200 µM
same,MIC,[2],≥ 200 µM
same,MIC,[3],≥ 200 µM
same,MIC,[4],> 200 µM
same,MIC,[5],> 200 µM
same,MIC,Escherichia coli ML-35p,≥ 200 µM
same,MIC,[6],≥ 200 µM
same,MIC,Listeria ivanovii,≥ 200 µM
same,MIC,[7],> 200 µM
same,MIC,Saccharomyces cerevisiae,≥ 200 µM
same,MIC,[8],≥ 200 µM
same,MIC,[9],> 200 µM
same,MIC,[10],≥ 200 µM
same,MIC,[11],≥ 100 µM
CC[C@H](C)[C@H](NC(=O)CNC(=O)[C@H](CCCCN)NC(=O)[C@@H](NC(=O)[C@H](CC(C)C)NC(=O)[C@H](CO)NC(=O)CNC(=O)[C@H](CC(C)C)NC(=O)CNC(=O)[C@H](C)NC(=O)[C@H](CCCCN)NC(=O)[C@H](Cc1ccccc1)NC(=O)[C@@H](NC(=O)[C@H](CCCCN)NC(=O)[C@H](CCCCN)NC(=O)[C@H](CC(C)C)NC(=O)CN)[C@@H](C)CC)C(C)C)C(=O)N[C@@H](C)C(=O)N[C@@H](C)C(=O)N[C@@H](Cc1cnc[nH]1)C(=O)N[C@H](C(=O)N[C@@H](C)C(=O)N[C@@H](CO)C(N)=O)C(C)C [GLKKIFKAGLGSLVKGIAAHVAS],MIC,[12],28.2 µM
same,MIC,[13],28.2 µM
same,MIC,[14],3.53 µM
same,MIC,[15],1.25 µM
same,MIC,[16],5 µM
same,MIC,[17],2.5 µM
same,MIC,[2],20 µM
same,MIC,[18],5 µM
same,MIC,Escherichia coli Ec513,14.1 µM
same,MIC,[19],12.5 µM
same,MIC,[7],6 µM
same,MIC,[20],≥ 56.5 µM
same,MIC,[21],28.2 µM
same,MIC,[9],250 µM
same,MIC,[22],≥ 56.5 µM
CC[C@H](C)[C@H](N)C(=O)N[C@@H](CC(C)C)C(=O)N1CCC[C@H]1C(=O)N[C@@H](CC(C)C)C(=O)N[C@@H](CCCCN)C(=O)N[C@@H](CC(C)C)C(=O)N1CCC[C@H]1C(=O)N[C@@H](CC(C)C)C(=O)N[C@@H](CC(C)C)C(=O)N1CCC[C@H]1C(=O)N[C@@H](Cc1c[nH]c2ccccc12)C(=O)N[C@@H](CCCN=C(N)N)C(=O)N[C@@H](CCCN=C(N)N)C(N)=O [ILPLKLPLLPWRR],MIC,Escherichia coli W160-37,12.4 µM
same,MIC,Staphylococcus aureus,3.1 µM
CC[C@H](C)[C@H](NC(=O)CNC(=O)[C@@H](N)CCCCN)C(=O)N[C@H](C(=O)NCC(=O)N[C@@H](CCSC)C(=O)N[C@@H](CC(C)C)C(=O)NCC(=O)N[C@@H](CCCCN)C(=O)N[C@@H](CC(C)C)C(=O)N[C@@H](Cc1ccccc1)C(N)=O)C(C)C [KGIVGMLGKLF],MIC,[1],50 µM
same,MIC,[2],12 µM
same,MIC,[3],≥ 50 µM
same,MIC,[4],> 200 µM
same,MIC,[5],30 µM
same,MIC,Escherichia coli ML-35p,25 µM
same,MIC,[6],≥ 100 µM
same,MIC,Listeria ivanovii,12 µM
same,MIC,[7],25 µM
same,MIC,Saccharomyces cerevisiae,12 µM
same,MIC,[8],≥ 100 µM
same,MIC,[9],40 µM
same,MIC,[10],≥ 40 µM
same,MIC,[11],≥ 50 µM
CC[C@H](C)[C@H](NC(=O)[C@H](Cc1c[nH]c2ccccc12)NC(=O)[C@H](CCCCN)NC(=O)[C@H](CCCCN)NC(=O)[C@H](CC(C)C)NC(=O)[C@H](Cc1ccccc1)NC(=O)[C@H](CCCCN)NC(=O)[C@H](CCCCN)NC(=O)[C@H](CC(C)C)NC(=O)[C@H](CC(C)C)NC(=O)[C@H](CCCCN)NC(=O)[C@@H]1CCCN1)C(=O)NCC(=O)O [PKLLKKFLKKWIG],MIC,Escherichia coli W160-37,24 µM
same,MIC,Staphylococcus aureus,13 µM
CC[C@H](C)[C@H](NC(=O)[C@H](Cc1ccc(O)cc1)NC(=O)[C@H](CCC(N)=O)NC(=O)[C@H](CCCCN)NC(=O)[C@H](CC(C)C)NC(=O)[C@H](CCCCN)NC(=O)[C@H](CCC(=O)O)NC(=O)CNC(=O)[C@H](CCSC)NC(=O)[C@H](CO)NC(=O)[C@H](CCCCN)NC(=O)[C@@H](NC(=O)[C@H](CCCCN)NC(=O)[C@H](CC(=O)O)NC(=O)[C@H](CCCCN)NC(=O)[C@H](CC(C)C)NC(=O)[C@@H](N)CO)C(C)C)C(=O)N[C@@H](CCC(N)=O)C(=O)N[C@H](C(=O)N[C@@H](Cc1c[nH]c2ccccc12)C(=O)N[C@@H](CCCCN)C(=O)N[C@@H](C)C(=O)N[C@@H](CCCCN)C(=O)N[C@@H](Cc1ccccc1)C(N)=O)[C@@H](C)O [SLKDKVKSMGEKLKQYIQTWKAKF],MIC,[23],0.3 µM
same,MIC,[24],1.1 µM
same,MIC,[25],4.4 µM
same,MIC,Escherichia coli MH1,4.4 µM
same,MIC,[26],> 35 µM
same,MIC,[27],≥ 35 µM
CSCC[C@H](NC(=O)[C@H](CO)NC(=O)[C@H](C)NC(=O)[C@H](Cc1c[nH]c2ccccc12)NC(=O)[C@@H](N)CO)C(=O)N[C@@H](C)C(=O)N[C@@H](CCCCN)C(=O)N[C@@H](CCCCN)C(=O)N[C@@H](CC(C)C)C(=O)N[C@@H](CCCCN)C(=O)N[C@@H](CCC(=O)O)C(=O)N[C@@H](Cc1ccc(O)cc1)C(=O)N[C@@H](CCSC)C(=O)N[C@@H](CCC(=O)O)C(=O)N[C@@H](CCCCN)C(=O)N[C@@H](CC(C)C)C(=O)N[C@@H](CCCCN)C(=O)N[C@@H](CCC(N)=O)C(=O)N[C@@H](CCCN=C(N)N)C(=O)N[C@@H](C)C(N)=O [SWASMAKKLKEYMEKLKQRA],MIC,[23],0.7 µM
same,MIC,[24],2.9 µM
same,MIC,[25],23 µM
same,MIC,Escherichia coli MH1,28 µM
same,MIC,[26],> 45 µM
same,MIC,[27],23 µM
CC[C@H](C)[C@H](NC(=O)[C@H](CO)NC(=O)[C@@H]1CCCN1C(=O)[C@H](C)NC(=O)CNC(=O)[C@H](CC(C)C)NC(=O)[C@H](CCCCN)NC(=O)[C@H](CCCN=C(N)N)NC(=O)[C@H](CCSC)NC(=O)[C@H](CCCN=C(N)N)NC(=O)[C@H](CCCN=C(N)N)NC(=O)[C@H](CCC(N)=O)NC(=O)[C@H](Cc1c[nH]c2ccccc12)NC(=O)[C@H](CCC(N)=O)NC(=O)[C@@H](N)Cc1ccc(O)cc1)C(=O)N[C@H](C(=O)O)[C@@H](C)O [YQWQRRMRKLGAPSIT],MIC,Escherichia coli O111,≥ 100 µM
